Values quoted from earlier work in paper PMC6024615, “Effect of Biliary Drainage on the Toxicity and Toxicokinetics of Amanita exitialis in Beagles” (Toxins, 2018).
Where two headings read alike, the source gives them in different places. *1 amine or outer side, *2 acyl side, *3 side chain or, on linkers, in order; H or OH if unused. Where a SMILES comes first, the peptide text is derived from it. Bridges are numbered along the chain shown (N, C = ends). [ ]: non-standard residue; d: D form. Trp(2-yl) = O=C([C@H](Cc1c([*:3])[nH]c2ccccc12)N[*:1])[*:2]; Leu(4R-OH,5-OH) = C[C@](O)(CO)C[C@H](N)C(=O)O; dAsp(3S-OH) = N[C@@H](C(=O)O)[C@H](O)C(=O)O; cisHyp = O=C(O)[C@@H]1C[C@H](O)CN1

Settings: cited from earlier work
Protocol: The difference in detectable time in the urine can be explained by the low level of internal exposure (amatoxins in the blood). […] The daily amounts of peptide toxins excreted in urine in beagles without biliary drainage(mg). Time after α-Amanitin β-Amanitin Phallacidin ingestion 20 mg/kg 60 mg/kg 20 mg/kg 60 mg/kg 20 mg/kg 60 mg/kg group group group group group group 0-1d 0.0379 0.0593 0.0156 0.0251 0.0035 0.0088 (97.9%) (92.8%) (99.9%) (94.7%) (94.2%) (76%) 1-2d 0.0388 0.0618 0.01567 0.0255 0.0037 0.0110 (99.995%) (97.5%) (100%) (96.2%) (100%) (93%) 2-3d 0.0002 0.0626 0 0.0260 0 0.0115 (100%) (99.4%) (100%) (98.2%) (100%) (97.3%) 3-4d 0 0.063 ...

SMILES	daily amount excreted in urine, without biliary drainage (0-1d, 20 mg/kg group) [mg]	percentage in parentheses, urine, without biliary drainage (0-1d, 20 mg/kg group) [%]	daily amount excreted in urine, without biliary drainage (0-1d, 60 mg/kg group) [mg]	percentage in parentheses, urine, without biliary drainage (0-1d, 60 mg/kg group) [%]	Accumulative amount excreted in urine, without biliary drainage (20 mg/kg group) [mg]	percentage in parentheses, Accumulative amount, urine, without biliary drainage (20 mg/kg group) [%]	percentage in parentheses, Accumulative amount, urine, without biliary drainage (60 mg/kg group) [%]	percentage in parentheses, urine, without biliary drainage (1-2d, 20 mg/kg group) [%]	daily amount excreted in urine, without biliary drainage (1-2d, 60 mg/kg group) [mg]	percentage in parentheses, urine, without biliary drainage (1-2d, 60 mg/kg group) [%]	daily amount excreted in urine, without biliary drainage (2-3d, 20 mg/kg group) [mg]	percentage in parentheses, urine, without biliary drainage (2-3d, 20 mg/kg group) [%]	daily amount excreted in urine, without biliary drainage (2-3d, 60 mg/kg group) [mg]	percentage in parentheses, urine, without biliary drainage (2-3d, 60 mg/kg group) [%]	daily amount excreted in urine, without biliary drainage (3-4d, 20 mg/kg group) [mg]	percentage in parentheses, urine, without biliary drainage (3-4d, 20 mg/kg group) [%]	daily amount excreted in urine, without biliary drainage (3-4d, 60 mg/kg group) [mg]	percentage in parentheses, urine, without biliary drainage (3-4d, 60 mg/kg group) [%]	other results
CC[C@H](C)[C@@H]1NC(=O)CNC(=O)[C@@H]2Cc3c([nH]c4cc(O)ccc34)[S@+]([O-])C[C@H](NC(=O)CNC1=O)C(=O)N[C@@H](CC(N)=O)C(=O)N1C[C@H](O)C[C@H]1C(=O)N[C@@H]([C@@H](C)[C@@H](O)CO)C(=O)N2 [α-amanitin]	0.0379	97.9	0.0593	92.8	0.039	100	100	99.995	0.0618	97.5	0.0002	100	0.0626	99.4	0	100	0.0630	100	Accumulative amount excreted in urine, without biliary drainage (20 mg/kg group, listed as α-Amanitin): 0.0390 mg; Accumulative amount excreted in urine, without biliary drainage (60 mg/kg group): 0.0630 mg
CC(C)[C@@H]1NC(=O)[C@H](C[C@@](C)(O)CO)NC(=O)[C@@H]2Cc3c([nH]c4ccccc34)SC[C@H](NC(=O)[C@@H]([C@H](O)C(=O)O)NC1=O)C(=O)N1C[C@@H](O)C[C@H]1C(=O)N[C@@H](C)C(=O)N2 [phallacidin] (cyclo(A[Trp(2-yl)][Leu(4R-OH,5-OH)]V[dAsp(3S-OH)]C[cisHyp]); thioether 2-6)	0.0035	94.2	0.0088	76	0.0037	100	100	100	0.0110	93	0	100	0.0115	97.3	0	100	0.0118	100	
CC[C@H](C)[C@@H]1NC(=O)CNC(=O)[C@@H]2Cc3c([nH]c4cc(O)ccc34)[S@+]([O-])C[C@H](NC(=O)CNC1=O)C(=O)N[C@@H](CC(=O)O)C(=O)N1C[C@H](O)C[C@H]1C(=O)N[C@@H]([C@@H](C)[C@@H](O)CO)C(=O)N2 [β-amanitin]	0.0156	99.9	0.0251	94.7	0.0157	100	100	100	0.0255	96.2	0	100	0.0260	98.2	0	100	0.0264	100	Accumulative amount excreted in urine, without biliary drainage (20 mg/kg group, listed as β-Amanitin): 0.01567 mg
